# Source: patent publication EP2966448B1, “METHOD FOR THE PREDICTION OR PROGNOSIS OF THE RESPONSE OF A HUMAN SUBJECT SUFFERING FROM CANCER TO TREATMENT WITH AN ANTAGONIST OF THE NK1 RECEPTOR” (priority 2013, dated 2014)
# Like-named read-outs stand apart in the source and are kept apart here.
# How the values were obtained:
# [1] = tested on: Burkitt Lymphoma; experiment: Inhibition of primary tumor cell cultures (48 hours) vs NK1 receptor immunostaining (Example 1); type: cell-based; conditions: Homo sapiens, 1 micromolar, read-out: Percentage of inhibition of cell cultures
# Procedure: (§1) Cell cultures. To obtain tumor cells from human primary tumors we used the method described in De Bari et al. (De Bari et al. 2001). Briefly, small pieces of the tumors were digested into a hyaluronidase solution (Sigma-Aldrich, USA) at a concentration of 1 mg/ml during 15 minutes at 37°C, and then they were treated with 6 mg/ml of collagenase type IV (Invitrogen) during 2 hours at 37°C. Consecutively, cells were washed, and resuspended in the DMEM culture medium with high concentration of glucose (Dulbecco's Modified Eagle's Medium, Invitrogen) supplemented with 1% of antibiotics-antimycotics (Invitrogen) and with 1% of sodium pyruvate (Invitrogen), and the cells were seeded in culture slides at a concentration of 10.000 cells per square centimeter. When cells reached confluence, the adherent cells were separated using sterile trypsin at 0,5% (Invitrogen) and they were used among passages 3 and 9. For the assays shown next, tumor cells were seeded on slides at a concentration of 25.000 cells per well. A total of 6 wells containing the tumor cells were used as survival control. […] All the cultures were kept during 48 hours and later on recollected for their analysis.
# (§2) Immunohistochemistry techniques. The presence of NK1 receptors was also analyzed using immunohistochemistry techniques. Briefly, a sample of each of the cultures of the cell lines used in the present invention, was centrifuged (5 minutes at 1.500 rpm) and the pellet obtained was dehydrated using increasing concentrations of ethanol and, finally, xylol. Then, said dehydrated samples were embedded in paraffin, creating a block of cells. Such paraffin blocks were cut with a microtome at 5 microns thickness, and were placed on microscope slides adequate to perform immunohistochemistry techniques. Consecutively, they were de-paraffinized by immersing them in xylol, to be finally hydrated using a solution containing decreasing concentrations of ethanol, and finally submerged them into water. […] After this, the samples were left to cool down at room temperature for 10 minutes. The endogenous peroxidase activity was blocked with 3% peroxide of hydrogen for 30 minutes at room temperature. After washing the samples with 0.05 M of Tris buffer, they were incubated with 10% non-immune pork serum at for 30 minutes at room temperature. To analyze the expression of NK1 receptors, the cellular samples were incubated in the presence of anti-NK1 antibodies (S8305, Sigma-Aldrich) diluted 1:1000, overnight at 4°C. Afterwards, the samples were washed in Tris buffer 0.05 M at room temperature. The next step was the addition of Envision System-HRP (Dako) reagents for 30 minutes at room temperature. Then, the samples were washed again in Tris buffer 0.05 M and the immunoreactivity was visualized through light microscopy with a chromogenic solution containing 3,3'-Diaminobenzidine (DAB+; Dako, USA). To differentiate the cell nuclei, they were slightly stained with hematoxylin. As negative control, it was used samples not incubated with the primary antibody anti-NK1, which was replaced by non-immune serum. All the samples were evaluated.
# (§3) To value the immunostaining in each of the cases six cuts were performed to be analyzed by the immunohistochemistry technique. In each of the six cuts, it was counted cells in 20 fields (magnification 400x) using an Olympus microscope (model CX31). In each field it was counted the total number of cells and the number of cells presenting immunostaining, calculating afterwards the percentage of cells which presented immunostaining.
# [2] = tested on: Undifferentiated Pleomorphic Sarcoma (malignant fibrous histiocytoma grade 3); experiment: Inhibition of primary tumor cell cultures vs Kras mutation (Example 2); type: cell-based, human; conditions: Homo sapiens, 100 micromolar, read-out: Percentage of inhibition of cell cultures
# Procedure: as §1
# (§4) In each case the presence or not of mutations in K-ras gene was determined.
# (§5) To determine the existence of mutations in the K-ras gene DNA from cancer tumor cells was extracted from samples obtained from the different cancer tumor cells, using DNA extraction kits from Takara (Madison, WI, US) or Ambion (Huntingdon, Cambridgeshire, United Kingdom), following the manufacturer's instructions, and as it has been previously published (Di Fiore F, et al. 2007). Consecutively it was analyzed by sequencing the exon 2 of the KRAS gene, , by means of PCR amplification from previously extracted cancer tumor DNA, using the following sense primer (SEQ ID NO. 15): 5'-[sequence]-3' and anti-sense primer (SEQ ID NO. 16): 5'-[sequence]-3'. After the purification using the Qiagen extraction kit, the PCR products were sequenced using the Big Dye Terminator Kit V3.1 (Applied Biosystems, Foster City, CA, U.S.) and an ABI Prism 377 or 3100 DNA sequencer (Applied Biosystems). The presence of a heterozygous mutation in the KRAS gene in cancer tumor cells of the cultures was defined as the appearance of a mutant peak of a height of at least a third of the wild type. All the sequence analysis were executed at least twice in two independent PCR.
# (§6) The percentages of inhibition are expressed in percentage of variation in relation to control ± standard deviation.
# [3] = tested on: Non Hodgkin Lymphoma B; experiment: Inhibition of primary tumor cell cultures (48 hours) vs NK1 receptor immunostaining (Example 1); type: cell-based; conditions: Homo sapiens, 1 micromolar, read-out: Percentage of inhibition of cell cultures
# Procedure: as §1, §2, §3
# [4] = tested on: Thyroid carcinoma (papillary type); experiment: as above; type: cell-based; conditions: Homo sapiens, 1 micromolar, read-out: Percentage of inhibition of cell cultures
# Procedure: as §1, §2, §3
# [5] = tested on: human primary tumor cells; experiment: Inhibition of primary tumor cell cultures vs absence or presence of AKT protein (Example 4; tumor type per table line); type: cell-based; conditions: cancer cell cultures showing more presence of AKT, compared; non-peptidic antagonists 100 micromolar, antibody 1/50
# Procedure: (§7) Cell cultures. […] Briefly, small pieces of the tumors were digested into a hyaluronidase solution (Sigma-Aldrich, USA) at a concentration of 1 mg/ml during 15 minutes at 37°C, and then they were treated with 6 mg/ml of collagenase type IV (Invitrogen) during 2 hours at 37°C. Consecutively, cells were washed, and resuspended in the DMEM culture medium with high concentration of glucose (Dulbecco's Modified Eagle's Medium, Invitrogen) supplemented with 1% of antibiotics-antimycotics (Invitrogen) and with 1% of sodium pyruvate (Invitrogen), and the cells were seeded in culture slides at a concentration of 10.000 cells per square centimeter. When cells reached confluence, the adherent cells were separated using sterile trypsin at 0,5% (Invitrogen) and they were used among passages 3 and 9. For the assays shown next, tumor cells were seeded on slides at a concentration of 25.000 cells per well. A total of 6 wells containing the tumor cells were used as survival control. […] All the cultures were kept during 48 hours and later on recollected for their analysis.
# Afterwards, the cells were cultured in presence of several antagonists of the NK1 receptor.
# In each case it was determined the presence or absence of the AKT protein effector downstream in the PI3 Kinases pathway.
# To determine the presence of the AKT protein in the different cultures Western Blot technique was performed (following the description in example 1-Western Blot section), but using as primary antibody with reference: Akt (pan) (11E7) Rabbit mAb (4685, Cell Signalling).
# The antibody against NK1 receptor (Table 26) was used at 1/50 concentration. The percentages of inhibition are expressed in percentage of variation in relation to control ± standard deviation.
# [6] = tested on: Endometrium carcinoma; experiment: Inhibition of primary tumor cell cultures vs Kras mutation (Example 2); type: cell-based, human; conditions: Homo sapiens, 100 micromolar, read-out: Percentage of inhibition of cell cultures
# Procedure: as §7, §4, §5
# (§8) The antibody against NK1 receptor (Table 16) was used at 1/50 concentration. The percentages of inhibition are expressed in percentage of variation in relation to control ± standard deviation.
# [7] = tested on: Lung carcinoma (non small cell lung carcinoma); experiment: as above; type: cell-based, human; conditions: Homo sapiens, 100 micromolar, read-out: Percentage of inhibition of cell cultures
# Procedure: To obtain tumor cells from human primary tumors we used the method described in De Bari et al. (De Bari et al. 2001). Briefly, small pieces of the tumors were digested into a hyaluronidase solution (Sigma-Aldrich, USA) at a concentration of 1 mg/ml during 15 minutes at 37°C, and then they were treated with 6 mg/ml of collagenase type IV (Invitrogen) during 2 hours at 37°C. Consecutively, cells were washed, and resuspended in the DMEM culture medium with high concentration of glucose (Dulbecco's Modified Eagle's Medium, Invitrogen) supplemented with 1% of antibiotics-antimycotics (Invitrogen) and with 1% of sodium pyruvate (Invitrogen), and the cells were seeded in culture slides at a concentration of 10.000 cells per square centimeter. When cells reached confluence, the adherent cells were separated using sterile trypsin at 0,5% (Invitrogen) and they were used among passages 3 and 9. For the assays shown next, tumor cells were seeded on slides at a concentration of 25.000 cells per well. A total of 6 wells containing the tumor cells were used as survival control. […] All the cultures were kept during 48 hours and later on recollected for their analysis.
# as §4, §5, §8
# [8] = tested on: Melanoma (Nodular Melanoma); experiment: as above; type: cell-based, human; conditions: Homo sapiens, 100 micromolar, read-out: Percentage of inhibition of cell cultures
# Procedure: as §1, §4, §5, §6
# [9] = tested on: Breast carcinoma (ductal adenocarcinoma); experiment: as above; type: cell-based, human; conditions: Homo sapiens, 100 micromolar, read-out: Percentage of inhibition of cell cultures
# Procedure: as §7, §4, §5, §8
# [10] = tested on: Burkitt Lymphoma; experiment: as above; type: cell-based, human; conditions: Homo sapiens, 100 micromolar, read-out: Percentage of inhibition of cell cultures
# Procedure: as §1, §4, §5, §8
# [11] = tested on: Gastric carcinoma; experiment: Inhibition of primary tumor cell cultures (48 hours) vs NK1 receptor immunostaining (Example 1); type: cell-based; conditions: Homo sapiens, 1 micromolar, read-out: Percentage of inhibition of cell cultures
# Procedure: as §1, §2, §3
# [12] = tested on: Ovarian carcinoma; experiment: as above; type: cell-based; conditions: Homo sapiens, 1 micromolar, read-out: Percentage of inhibition of cell cultures
# Procedure: as §1, §2, §3
# [13] = tested on: human primary tumor cells; experiment: Inhibition of primary tumor cell cultures vs absence or presence of ERK  protein (Example 3; tumor type per table line); type: cell-based; conditions: 100 micromolar
# Procedure: as §7
# Consecutively, the cells were placed in cultures in the presence of several antagonists of the NK1 receptor.
# In each case it was determined the presence or absence of the downstream effector in the MAP Kinases ERK pathway.
# To determine the presence of the ERK protein, it was performed a Western Blot technique, using as primary antibody: Phospho-p44/42 MAPK (Erk1/2) (Thr202/Tyr204) (D13.14.4E) XP® Rabbit mAb (4370, Cell Signalling). To determine the presence of the MEK protein, it was performed the Western Blot technique, using as primary antibody Phospho-MEK1/2 (Ser217/221) (9121, Cell Signalling).
# The antibody against NK1 receptor (Table 21) was used at 1/50 concentration. The percentages of inhibition are expressed in percentages of variation in relation to control ± standard deviation.
# [14] = NK1 receptor immunostaining Group 1 (less than 20% of the cells)
# [15] = NK1 receptor immunostaining Group 2 (20-80% of the cells)
# [16] = NK1 receptor immunostaining Group 3 (more than 80% of the cells)
# [17] = NK1 receptor immunostaining Intensity grade 1
# [18] = NK1 receptor immunostaining Intensity grade 2
# [19] = NK1 receptor immunostaining Intensity grade 3
# [20] = Cases with Kras non-mutated (wild type)
structure (smiles),measurement,setting,value
CC(=O)N1CCN([C@H]2CCN(C(=O)N(C)[C@H](C)c3cc(C(F)(F)F)cc(C(F)(F)F)c3)[C@@H](c3ccc(F)cc3C)C2)CC1 [Casopitant],inhibition at 1 µM,[1]; [14],15 ± 3%
same,inhibition at 1 µM,[1]; [15],46 ± 5%
same,inhibition at 1 µM,[1]; [16],94 ± 5%
same,inhibition at 1 µM,[1]; [17],37 ± 5%
same,inhibition at 1 µM,[1]; [18],55 ± 3%
same,inhibition at 1 µM,[1]; [19],93 ± 3%
same,inhibition at 100 µM,[2]; Cases with Kras mutated,26 ± 5%
same,inhibition at 100 µM,[2]; [20],95 ± 5%
same,inhibition at 1 µM,[3]; [14],15 ± 3%
same,inhibition at 1 µM,[3]; [15],46 ± 5%
same,inhibition at 1 µM,[3]; [16],94 ± 4%
same,inhibition at 1 µM,[3]; [17],32 ± 3%
same,inhibition at 1 µM,[3]; [18],55 ± 5%
same,inhibition at 1 µM,[3]; [19],94 ± 4%
same,inhibition at 1 µM,[4]; [14],16 ± 2%
same,inhibition at 1 µM,[4]; [15],44 ± 2%
same,inhibition at 1 µM,[4]; [16],95 ± 5%
same,inhibition at 1 µM,[4]; [17],35 ± 4%
same,inhibition at 1 µM,[4]; [18],55 ± 6%
same,inhibition at 1 µM,[4]; [19],92 ± 3%
same,inhibition of cell proliferation,[5],higher inhibition
same,inhibition at 100 µM,[6]; Cases with Kras mutated,28 ± 2%
same,inhibition at 100 µM,[6]; [20],94 ± 4%
same,inhibition at 100 µM,[7]; Cases with Kras mutated,25 ± 5%
same,inhibition at 100 µM,[7]; [20],95 ± 5%
same,inhibition at 100 µM,[8]; Cases with Kras mutated,25 ± 6%
same,inhibition at 100 µM,[8]; [20],94 ± 6%
same,inhibition at 100 µM,[9]; Cases with Kras mutated,28 ± 6%
same,inhibition at 100 µM,[9]; [20],96 ± 4%
same,inhibition at 100 µM,[10]; Cases with Kras mutated,25 ± 2%
same,inhibition at 100 µM,[10]; [20],92 ± 5%
same,inhibition at 1 µM,[11]; [14],12 ± 4%
same,inhibition at 1 µM,[11]; [15],46 ± 2%
same,inhibition at 1 µM,[11]; [16],90 ± 2%
same,inhibition at 1 µM,[11]; [17],31 ± 3%
same,inhibition at 1 µM,[11]; [18],53 ± 3%
same,inhibition at 1 µM,[11]; [19],91 ± 3%
same,inhibition at 1 µM,[12]; [14],14 ± 3%
same,inhibition at 1 µM,[12]; [15],49 ± 3%
same,inhibition at 1 µM,[12]; [16],94 ± 4%
same,inhibition at 1 µM,[12]; [17],33 ± 4%
same,inhibition at 1 µM,[12]; [18],54 ± 4%
same,inhibition at 1 µM,[12]; [19],91 ± 3%
same,Percentage of inhibition of cell cultures,"[13]; Breast carcinoma (ductal adenocarcinoma), cases with presence of ERK",93±4 percentage
same,Percentage of inhibition of cell cultures,"[13]; Breast carcinoma (ductal adenocarcinoma), cases without presence of ERK",26±4 percentage
same,Percentage of inhibition of cell cultures,"[13]; Burkitt Lymphoma, cases with presence of ERK",97±5 percentage
same,Percentage of inhibition of cell cultures,"[13]; Burkitt Lymphoma, cases without presence of ERK",28±6 percentage
same,Percentage of inhibition of cell cultures,"[13]; Carcinoma of the uterine cervix (Squamous cell carcinoma), cases with presence of ERK",93±4 percentage
same,Percentage of inhibition of cell cultures,"[13]; Carcinoma of the uterine cervix (Squamous cell carcinoma), cases without presence of ERK",28±3 percentage
same,Percentage of inhibition of cell cultures,"[13]; Colon carcinoma (Adenocarcinoma), cases with presence of ERK",95±3 percentage
same,Percentage of inhibition of cell cultures,"[13]; Colon carcinoma (Adenocarcinoma), cases without presence of ERK",24±3 percentage
same,Percentage of inhibition of cell cultures,"[13]; Endometrium carcinoma, cases with presence of ERK",93±5 percentage
same,Percentage of inhibition of cell cultures,"[13]; Endometrium carcinoma, cases without presence of ERK",29±2 percentage
same,Percentage of inhibition of cell cultures,"[13]; Gastric carcinoma (Adenocarcinoma), cases with presence of ERK",96±4 percentage
same,Percentage of inhibition of cell cultures,"[13]; Gastric carcinoma (Adenocarcinoma), cases without presence of ERK",25±6 percentage
same,Percentage of inhibition of cell cultures,"[13]; Glioma (astrocytoma), cases with presence of ERK",93±4 percentage
same,Percentage of inhibition of cell cultures,"[13]; Glioma (astrocytoma), cases without presence of ERK",28±3 percentage
same,Percentage of inhibition of cell cultures,"[13]; Lung carcinoma (non small cell lung carcinoma), cases with presence of ERK",95±7 percentage
same,Percentage of inhibition of cell cultures,"[13]; Lung carcinoma (non small cell lung carcinoma), cases without presence of ERK",27±5 percentage
same,Percentage of inhibition of cell cultures,"[13]; Lung carcinoma (small cell lung carcinoma), cases with presence of ERK",94±5 percentage
same,Percentage of inhibition of cell cultures,"[13]; Lung carcinoma (small cell lung carcinoma), cases without presence of ERK",29±4 percentage
same,Percentage of inhibition of cell cultures,"[13]; Melanoma (Nodular Melanoma), cases with presence of ERK",96±5 percentage
same,Percentage of inhibition of cell cultures,"[13]; Melanoma (Nodular Melanoma), cases without presence of ERK",27±5 percentage
same,Percentage of inhibition of cell cultures,"[13]; Non Hodgkin Lymphoma B (diffuse B cell lymphoma), cases with presence of ERK",97±5 percentage
same,Percentage of inhibition of cell cultures,"[13]; Non Hodgkin Lymphoma B (diffuse B cell lymphoma), cases without presence of ERK",28±4 percentage
same,Percentage of inhibition of cell cultures,"[13]; Non Hodgkin Lymphoma T (diffuse T cell lymphoma), cases with presence of ERK",98±4 percentage
same,Percentage of inhibition of cell cultures,"[13]; Non Hodgkin Lymphoma T (diffuse T cell lymphoma), cases without presence of ERK",29±5 percentage
same,Percentage of inhibition of cell cultures,"[13]; Ovarian carcinoma (Adenocarcinoma), cases with presence of ERK",92±6 percentage
same,Percentage of inhibition of cell cultures,"[13]; Ovarian carcinoma (Adenocarcinoma), cases without presence of ERK",28±5 percentage
same,Percentage of inhibition of cell cultures,"[13]; Pancreatic carcinoma (Adenocarcinoma), cases with presence of ERK",94±2 percentage
same,Percentage of inhibition of cell cultures,"[13]; Pancreatic carcinoma (Adenocarcinoma), cases without presence of ERK",23±4 percentage
same,Percentage of inhibition of cell cultures,"[13]; Prostate carcinoma, cases with presence of ERK",94±5 percentage
same,Percentage of inhibition of cell cultures,"[13]; Prostate carcinoma, cases without presence of ERK",27±4 percentage
same,Percentage of inhibition of cell cultures,"[13]; Renal cell carcinoma (clear cell renal cell carcinoma), cases with presence of ERK",94±3 percentage
same,Percentage of inhibition of cell cultures,"[13]; Renal cell carcinoma (clear cell renal cell carcinoma), cases without presence of ERK",27±3 percentage
